Several values for one entry are separate records, joined by “and”; a condition that tells them apart may be missing. Equal entries are not always repeated. Inconclusive results and toxic doses are left out.

In the assay the test system is P388 leukemia ip, CD2F1 mice, survival T/C. Kind of assay: NCI In Vivo Anticancer Drug Screen. Data for tumor model P388 Leukemia (intraperitoneal) in CD2F1 (CDF1) mice. The conditions noted are these: endpoint: median survival time, higher = longer survival. The essentials: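 Mice carrying the transplanted tumor received test compound or vehicle. Survival was recorded in each group, and the value is the treated-group measurement divided by that of the vehicle-treated control group.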

[1] abbreviates: dose: 60.0 mg/kg/injection, schedule: Q01DX005 (ip), vehicle: saline with Tween-80.
Setting [2] is: dose: 120.0 mg/kg/injection, schedule: Q01DX005 (ip), vehicle: saline with Tween-80.
Setting [3] is: dose: 240.0 mg/kg/injection, schedule: Q01DX005 (ip), vehicle: saline with Tween-80.
Setting [4] is: dose: 100.0 mg/kg/injection, schedule: Q01DX005 (ip), vehicle: saline.
Setting [5] is: dose: 12.5 mg/kg/injection, schedule: Q01DX009 (ip), vehicle: saline with Tween-80.
[6] abbreviates: dose: 25.0 mg/kg/injection, schedule: Q01DX009 (ip), vehicle: saline with Tween-80.
[7] abbreviates: dose: 50.0 mg/kg/injection, schedule: Q01DX005 (ip), vehicle: Klucel (hydroxypropylcellulose) (HPC).
[8] abbreviates: dose: 100.0 mg/kg/injection, schedule: Q01DX005 (ip), vehicle: Klucel (hydroxypropylcellulose) (HPC).
[9] abbreviates: dose: 200.0 mg/kg/injection, schedule: Q01DX005 (ip), vehicle: Klucel (hydroxypropylcellulose) (HPC).
Setting [10] is: dose: 50.0 mg/kg/injection, schedule: Q01DX009 (ip), vehicle: saline.
Where [11] appears, read: dose: 100.0 mg/kg/injection, schedule: Q04DX002 (ip), vehicle: saline with Tween-80.
Where [12] appears, read: dose: 200.0 mg/kg/injection, schedule: Q04DX002 (ip), vehicle: saline with Tween-80.
Setting [13] is: dose: 400.0 mg/kg/injection, schedule: Q04DX002 (ip), vehicle: saline with Tween-80.
Where [14] appears, read: dose: 100.0 mg/kg/injection, schedule: Q04DX003 (ip), vehicle: saline with Tween-80.
Where [15] appears, read: dose: 12.5 mg/kg/injection, schedule: Q01DX009 (ip), vehicle: Klucel (hydroxypropylcellulose) (HPC).
[16] abbreviates: dose: 25.0 mg/kg/injection, schedule: Q01DX009 (ip), vehicle: Klucel (hydroxypropylcellulose) (HPC).
[17] abbreviates: dose: 50.0 mg/kg/injection, schedule: Q01DX009 (ip), vehicle: Klucel (hydroxypropylcellulose) (HPC).
The mark [18] stands for this setting: dose: 100.0 mg/kg/injection, schedule: Q01DX009 (ip), vehicle: Klucel (hydroxypropylcellulose) (HPC).
Where [19] appears, read: dose: 100.0 mg/kg/injection, schedule: Q01DX001 (ip), vehicle: Klucel (hydroxypropylcellulose) (HPC).

`COc1cc(/C=N/NC(=O)CNC(=O)c2ccccc2)ccc1O`: the T/C under setting [1] is 93 % of control, the T/C under setting [2] is 95 % of control and the T/C under setting [3] was 94 % of control.

`C[n+]1ccc(C[n+]2ccccc2)c2ccccc21`: the T/C (dose: 50.0 mg/kg/injection, schedule: Q01DX005 (ip), vehicle: saline) was 104 % of control; the T/C under setting [4] was 100 % of control; the T/C (dose: 200.0 mg/kg/injection, schedule: Q01DX005 (ip), vehicle: saline) is 96 % of control.

As to `O=C(/C=C/c1ccc(OCc2ccccc2)cc1)c1cccc(Cl)c1`, the T/C reads like this: (dose: 6.25 mg/kg/injection, schedule: Q01DX009 (ip), vehicle: saline with Tween-80) 95 % of control; under setting [5], 95 % of control; under setting [6], 93 % of control.

As to `COc1cc(S(=O)(=O)O)ccc1N=N/C(=N\Nc1ccc(S(=O)(=O)O)cc1OC)C(N)=O`, the T/C was 100 % of control under setting [7]; 108 % of control and 92 % of control under setting [8]; 103 % of control and 93 % of control under setting [9].

In the case of `S=c1[nH]ccn1-c1ccccc1Cl`, the T/C (dose: 60.0 mg/kg/injection, schedule: Q01DX005 (ip), vehicle: Klucel (hydroxypropylcellulose) (HPC)) is 101 % of control; the T/C (dose: 120.0 mg/kg/injection, schedule: Q01DX005 (ip), vehicle: Klucel (hydroxypropylcellulose) (HPC)) was 106 % of control; the T/C (dose: 240.0 mg/kg/injection, schedule: Q01DX005 (ip), vehicle: Klucel (hydroxypropylcellulose) (HPC)) is 109 % of control.

As for `CCCNC(=O)OCC1=C(COC(=O)NCCC)C2OC1C(C(=O)OC)=C2C(=O)OC`, the T/C is 89 % of control (dose: 12.5 mg/kg/injection, schedule: Q01DX009 (ip), vehicle: distilled water + Tween-80); 93 % of control (dose: 25.0 mg/kg/injection, schedule: Q01DX009 (ip), vehicle: distilled water + Tween-80); 86 % of control (dose: 50.0 mg/kg/injection, schedule: Q01DX009 (ip), vehicle: distilled water + Tween-80).

For `COC(=O)CCC(=O)Nc1ccccc1C(F)(F)F`, the T/C reads like this: under setting [1], 102 % of control; under setting [2], 108 % of control; under setting [3], 107 % of control.

In the case of `c1csc(C2N3CCN(CC3)C(c3cccs3)N3CCN2CC3)c1` (stereo not given), the T/C is 100 % of control under setting [1], 104 % of control under setting [2] and 103 % of control under setting [3].

As for `N/C(C/C(=N/OC(=O)c1ccccc1)OC(=O)c1ccccc1)=N/O`, the T/C is 101 % of control (dose: 100.0 mg/kg/injection, schedule: Q04DX003 (ip), vehicle: saline); 107 % of control (dose: 200.0 mg/kg/injection, schedule: Q04DX003 (ip), vehicle: saline); 99 % of control (dose: 400.0 mg/kg/injection, schedule: Q04DX003 (ip), vehicle: saline).

Consider `C=C1CC2(CCCC3(C2)OCCO3)OC1=O` (stereo not given), for which the T/C is 95 % of control under setting [7], 95 % of control under setting [8] and 106 % of control under setting [9].

`C[CH2][Sn]([CH2]C)[CH2]C.C[CH2][Sn]([CH2]C)[CH2]C`: the T/C is 105 % of control and 97 % of control (dose: 12.5 mg/kg/injection, schedule: Q01DX005 (ip), vehicle: Klucel (hydroxypropylcellulose) (HPC)); 101 % of control and 114 % of control (dose: 25.0 mg/kg/injection, schedule: Q01DX005 (ip), vehicle: Klucel (hydroxypropylcellulose) (HPC)); 110 % of control and 97 % of control under setting [7]; 113 % of control under setting [8].

In the case of `CNc1cc2nc3ccccc3nc2cc1O`, the T/C under setting [10] was 104 % of control; the T/C (dose: 100.0 mg/kg/injection, schedule: Q01DX009 (ip), vehicle: saline) was 92 % of control; the T/C (dose: 200.0 mg/kg/injection, schedule: Q01DX009 (ip), vehicle: saline) is 86 % of control.

`CN(C)c1ccc(C2(c3ccccc3)c3ccccc3C(=O)N2N)cc1` (stereo not given): the T/C by setting is: under setting [11], 89 % of control; under setting [12], 89 % of control; under setting [13], 90 % of control.

Take `COc1cc2c(cc1OC)C(C(=O)O)C1c3cc4c(cc3CCN1C2=O)OCO4` (stereo not given): the T/C runs as follows: (dose: 50.0 mg/kg/injection, schedule: Q04DX003 (ip), vehicle: distilled water + Tween-80) 102 % of control and 115 % of control; (dose: 100.0 mg/kg/injection, schedule: Q04DX003 (ip), vehicle: distilled water + Tween-80) 105 % of control and 100 % of control; (dose: 200.0 mg/kg/injection, schedule: Q04DX003 (ip), vehicle: distilled water + Tween-80) 113 % of control and 100 % of control; (dose: 400.0 mg/kg/injection, schedule: Q04DX003 (ip), vehicle: distilled water + Tween-80) 88 % of control and 100 % of control.

Consider `CCCCNC1=CC(=O)c2ccccc2C1=O`, for which the T/C was 99 % of control (dose: 50.0 mg/kg/injection, schedule: Q04DX003 (ip), vehicle: saline with Tween-80); 92 % of control under setting [14]; 88 % of control (dose: 200.0 mg/kg/injection, schedule: Q04DX003 (ip), vehicle: saline with Tween-80).

`C=C(C)C(=NC(C)(C)C)Nc1ccccc1`: the T/C reads like this: (dose: 10.0 mg/kg/injection, schedule: Q01DX005 (ip), vehicle: saline) 119 % of control; under setting [15], 121 % of control; under setting [5], 116 % of control; under setting [16], 106 % of control; under setting [17], 107 % of control; under setting [4], 152 % of control. Also, the T/C under setting [18] is 107 % of control.

As for `CCCCCCCCCCCC1=C(O)C(=O)C(Cl)=C(O)C1=O`, the T/C was 98 % of control (dose: 12.5 mg/kg/injection, schedule: Q01DX005 (ip), vehicle: saline with Tween-80); 97 % of control (dose: 25.0 mg/kg/injection, schedule: Q01DX005 (ip), vehicle: saline with Tween-80); 102 % of control and 90 % of control (dose: 50.0 mg/kg/injection, schedule: Q01DX005 (ip), vehicle: saline with Tween-80).

Regarding `O=C(Nc1ccc(C(=O)O)cc1)Oc1ccc(N(CCCl)CCCl)cc1`, the T/C was 209 % of control under setting [6]; 159 % of control (dose: 50.0 mg/kg/injection, schedule: Q01DX009 (ip), vehicle: saline with Tween-80); 200 % of control (dose: 66.0 mg/kg/injection, schedule: Q04DX003 (ip), vehicle: saline with Tween-80); 181 % of control and 200 % of control under setting [14].

Consider `CC(O)C(O)C(O)C(O)C=O` (stereo not given), for which the T/C was 109 % of control (dose: 60.0 mg/kg/injection, schedule: Q01DX005 (ip), vehicle: saline) and 100 % of control (dose: 240.0 mg/kg/injection, schedule: Q01DX005 (ip), vehicle: saline).

In the case of `c1ccc2c(c1)CCNC2C1NCCc2ccccc21` (stereo not given), the T/C reads like this: under setting [15], 107 % of control; under setting [16], 100 % of control; under setting [17], 104 % of control; under setting [19], 109 % of control; under setting [18], 105 % of control and 91 % of control; (dose: 200.0 mg/kg/injection, schedule: Q01DX001 (ip), vehicle: Klucel (hydroxypropylcellulose) (HPC)) 107 % of control.

With `CN1NC(c2ccc(N(C)C)cc2)(c2ccc(N(C)C)cc2)c2ccc(N(C)C)cc2C1=O`, the T/C by setting is: under setting [11], 90 % of control; under setting [12], 88 % of control; under setting [13], 88 % of control.

Turning to `CC(=O)Nc1c(Cl)c(Cl)c2c(c1Cl)Cc1cc(Cl)ccc1-2`, the T/C is 103 % of control (dose: 12.5 mg/kg/injection, schedule: Q01DX009 (ip), vehicle: saline); 104 % of control (dose: 25.0 mg/kg/injection, schedule: Q01DX009 (ip), vehicle: saline); 91 % of control (dose: 25.0 mg/kg/injection, schedule: Q01DX009 (ip), vehicle: suspension in saline); 107 % of control under setting [10]; 87 % of control (dose: 50.0 mg/kg/injection, schedule: Q01DX009 (ip), vehicle: suspension in saline); 91 % of control (dose: 100.0 mg/kg/injection, schedule: Q01DX009 (ip), vehicle: suspension in saline).

On to `O=Nc1ccc(O)c2ncccc12`, for which the T/C (dose: 50.0 mg/kg/injection, schedule: Q01DX001 (ip), vehicle: Klucel (hydroxypropylcellulose) (HPC)) was 111 % of control and the T/C under setting [19] is 121 % of control.

Values taken from PubChem BioAssay AID330 (DTP/NCI, 2004).
